The text below walks through data of patent publication US7425433B2, “Carboxylic acid reductase polypeptide, nucleotide sequence encoding same and methods of use” (priority 2003, dated 2008).

For data set [1], the system named is E. coli BL21-CodonPlus(DE3)-RP carrying pHAT-305. The experiment in a line: In vivo whole cell reactions. Type of data set: cell-based. The note with it: IPTG-induced cultures, 1 mg/ml substrate acid. The method, then: In vivo whole cell reactions were typically conducted with 100 ml cultures of E. coli BL21-CodonPlus®(DE3)-RP carrying pHAT-305. Cultures were induced by 1 mM IPTG for 4 hrs before receiving 1 mg/ml of benzoic acid, vanillic acid, or ferulic acid.
Samples of approximately 2 mL were removed at various time intervals, sample pH was adjusted to pH 2.0 with 6N HCl, and samples were extracted with 1 ml ethyl acetate, and centrifuged for 2 min at 1,000×g. Organic phases were removed and used to spot silica gel GF254 TLC plates for analysis, and comparison with authentic standards of benzaldehyde, vanillin and coniferaldehyde. For metabolite isolation, reactions were stopped by adjustment of mixtures to pH 2.0 with 6N HCl, and extracted three times with half-volumes of ethyl acetate. After removal of solvent by rotary evaporation, reduction products were purified by preparative TLC for analysis and comparison with authentic standards.

Data set [2] concerns the target T1, carboxylic acid reductase (CAR) (Nocardia iowensis, UniProt Q6RKB1, L218S).
T1 construct: made in house; host or cells: E. coli BL21-CodonPlus(DE3)-RP carrying pHAT-305
The class given is biochemical, Nocardia sp. NRRL 5646. As to conditions: for Km: cofactors of purified HAT-CAR, Cleland's kinetics program; for Specific activity: 25° C. The method, then:
Enzyme assay. The standard reaction mixture contained 1 mM ATP, 0.15 mM NADPH, 5 mM sodium benzoate, 10 mM MgCl2 and enzyme in 0.05 M Tris buffer (pH 7.5) containing 1 mM EDTA, 1 mM DTT and 10% glycerol (vol/vol), in a final volume of 1.4 ml. The reference cuvette contained all components except benzoate. Reactions were initiated by adding enzyme, and were monitored by recording the absorption decrease at 340 nm at 25° C. with a Shimadzu UV-2010PC scanning spectrophotometer. One unit of the enzyme was defined as the amount of enzyme that catalyzed the reduction of 1 µmol of benzoate to benzaldehyde.min^−1 under standard assay condition. Protein concentrations were measured by the Bradford protein microassay (4) with bovine serum albumin as the standard.

Where two headings read alike, the source gives them in different places.

For the molecule `O=C(O)c1ccccc1` [benzoate, benzoic acid], the “in vivo transformation by whole cells” value in data set [1] is “quickly converted to benzyl alcohol”. With `NC(=O)C1=CN([C@@H]2O[C@H](COP(=O)(O)OP(=O)(O)OC[C@H]3O[C@@H](n4cnc5c(N)ncnc54)[C@H](OP(=O)(O)O)[C@@H]3O)[C@@H](O)[C@H]2O)C=CC1` [NADPH], the Km in data set [2] was determined as 57 ± 3.6 µM. Regarding `COc1cc(/C=C/C=O)ccc1O` [coniferyl aldehyde], in data set [1], the “in vivo transformation by whole cells” value is given as “converted to their corresponding alcohols”. On to `Nc1ncnc2c1ncn2[C@@H]1O[C@H](COP(=O)(O)OP(=O)(O)OP(=O)(O)O)[C@@H](O)[C@H]1O` [ATP], for which the Km in data set [2] was found to be 69 ± 6.6 µM. On to `COc1cc(C=O)ccc1O` [vanillin], for which the “in vivo transformation by whole cells” value in data set [1] was “converted to their corresponding alcohols”.

B1: HAT-CAR: HAT-tagged recombinant Nocardia carboxylic acid reductase fusion protein expressed in E. coli from pHAT-305 (protein)
chain: AVDSPDERLQRRIAQLFAEDEQVKAARPLEAVSAAVSAPGMRLAQIAATVMAGYADRPAAGQRAFELNTDDATGRTSLRLLPRFETITYRELWQRVGEVAAAWHHDPENPLRAGDFVALLGFTSIDYATLDLADIHLGAVTVPLQASAAVSQLIAILTETSPRLLASTPEHLDAAVECLLAGTTPERLVVFDYHPEDDDQRAAFESARRRLADAGSSVIVETLDAVRARGRDLPAAPLFVPDTDDDPLALLIYTSGSTGTPKGAMYTNRLAATMWQGNSMLQGNSQRVGINLNYMPMSHIAGRISLFGVLARGGTAYFAAKSDMSTLFEDIGLVRPTEIFFVPRVCDMVFQRYQSELDRRSVAGADLDTLDREVKADLRQNYLGGRFLVAVVGSAPLAAEMKTFMESVLDLPLHDGYGSTEAGASVLLDNQIQRPPVLDYKLVDVPELGYFRTDRPHPRGELLLKAETTIPGYYKRPEVTAEIFDEDGFYKTGDIVAELEHDRLVYVDRRNNVLKLSQGEFVTVAHLEAVFASSPLIRQIFIYGSSERSYLLAVIVPTDDALRGRDTATLKSALAESIQRIAKDANLQPYEIPRDFLIETEPFTIANGLLSGIAKLLRPNLKERYGAQLEQMYTDLATGQADELLALRREAADLPVLETVSRAAKAMLGVASADMRPDAHFTDLGGDSLSALSFSNLLHEIFGVEVPVGVVVSPANELRDLANYIEAERNSGAKRPTFTSVHGGGSEIRAADLTLDKFIDARTLAAADSIPHAPVPAQTVLLTGANGYLGRFLCLEWLERLDKTGGTLICVVRGSDAAAARKRLDSAFDSGDPGLLEHYQQLAARTLEVLAGDIGDPNLGLDDATWQRLAETVDLIVHPAALVNHVLPYTQLFGPNVVGTAEIVRLAITARRKPVTYLSTVGVADQVDPAEYQEDSDVREMSAVRVVRESYANGYGNSKWAGEVLLREAHDLCGLPVAVFRSDMILAHSRYAGQLNVQDVFTRLILSLVATGIAPYSFYRTDADGNRQRAHYDGLPADFTAAAITALGIQATEGFRTYDVLNPYDDGISLDEFVDWLVESGHPIQRITDYSDWFHRFETAIRALPEKQRQASVLPLLDAYRNPCPAVRGAILPAKEFQAAVQTAKIGPEQDIPHLSAPLIDKYVSDLELLQLL
modifications: left off: small tags and cut ends
Take B1: the Specific activity is 0.009 U/mg in data set [2] (purification step: Crude extract), 0.09 U/mg in data set [2] (purification step: DEAE Sepharose) and 0.066 U/mg in data set [2] (purification step: Talon Matrix). In addition, in data set [2] (purified HAT-CAR), the “specific CAR activity” value was 0.11 μmol.min^−1.mg-^−1 protein. Further, the Vmax in data set [2] (purified recombinant HAT-CAR) turned out to be 0.135±0.004 μmol.min^−1.mg^−1 protein.
